PubChem BioAssay AID651630 (Sanford-Burnham Center for Chemical Genomics, 2012)
The source made the active and inactive calls.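 The calls were made as follows: active = lipid-stain IC50 at or below a set limit, with nuclear-stain toxicity IC50 at least five times higher; inactive = the rest.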

Key:
DAPI = experiment: triacylglycerol accumulation inhibitor potency, dose response, cell-based, panel, Nile Red and DAPI fluorescence, H9c2 (AID 651630); settings: H9c2 cells, DAPI nuclear fluorescence (cytotoxicity counter-readout), oleic acid;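 also: cells exposed to compound overnight before fixation and staining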
TAG = experiment: as above; settings: H9c2 cells, Nile Red TAG fluorescence, oleic acid

SMILES | IC50 cytotoxicity (DAPI nuclear signal decrease) (DAPI; mean of runs) | IC50 cytotoxicity (DAPI nuclear signal decrease) (DAPI; run 1) [µM] | IC50 cytotoxicity (DAPI nuclear signal decrease) (DAPI; run 2) [µM] | IC50 (TAG; run 1) [µM] | IC50 (TAG; run 2) [µM] | IC50 (TAG; mean of runs)
COc1ccc2[nH]c3c(c2c1)CCN1C(=O)C(CC(=O)NCC24CC5CC(CC(C5)C2)C4)C[C@H](C(=O)N(C(C)C)C(C)C)[C@@]31C (some centres undefined) | > 25 µM (inactive) | > 25 | > 25 | 20.8 | > 25 | 
Cc1cc(NC(=O)c2sccc2C)n(-c2nc3ccccc3[nH]2)n1 | > 25 µM (inactive) | > 25 | > 25 | 19.9 | 20.9 | 20.4 µM (inactive)
CCN(C[C@H]1N[C@@](CC)(C(=O)OC)[C@H]2C(=O)N(Cc3ccccc3)C(=O)[C@@H]12)S(=O)(=O)c1ccc(C(C)(C)C)cc1 | > 25 µM (inactive) | > 25 | > 25 | 10.5 | 9.54 | 10 µM
Cc1cc(N/N=C/c2ccc(F)cc2)nc(-n2nc(C)cc2C)n1 | > 25 µM (inactive) | > 25 | > 25 | > 25 | > 25 | > 25 µM (inactive)
Cc1cccc(-c2ccc3[nH]c4c(c3c2)CCN2C[C@@H]([C@H](C)OC(=O)Nc3ccccc3C)[C@@H](N(C)C(=O)Nc3ccccc3C)C[C@@H]42)c1 | > 25 µM (inactive) | > 25 | > 25 | 15.5 | 15.6 | 15.6 µM (inactive)
COc1ccc(-c2nc(-c3ccccc3)c(-c3cc([N+](=O)[O-])ccc3C)[nH]2)cc1OC | > 25 µM (inactive) | > 25 | > 25 | 12 | 13.9 | 12.9 µM
O=C(Nc1ccc(-c2csc(Nc3cccc(C(F)(F)F)c3)n2)cc1)c1cccc(C(F)(F)F)c1 | > 25 µM (inactive) | > 25 | > 25 | 5.94 | 6.94 | 6.44 µM
CCOC(=O)c1cc(-c2ccccc2)sc1NC(=S)Nc1cccc(C)n1 | > 25 µM (inactive) | > 25 | > 25 | > 25 | > 25 | > 25 µM (inactive)
COC(=O)c1c(NC(=S)NN2CCN(C)CC2)sc2c1CCC(C)C2 (centres undefined) | 17.8 µM (inactive) | 18.5 | 17.1 | > 25 | 15.1 | 
CC(=O)Nc1ccc(NC2=Nc3ccccc3N3C2=Nc2c(c(C)nn2-c2ccccc2)C3c2ccccc2)cc1 (centres undefined) | > 25 µM (inactive) | > 25 | > 25 | > 25 | > 25 | > 25 µM (inactive)
CCN(CC)c1ccc(/C=C2\CCC(/C=C(/C#N)C(=O)Nc3ccccc3F)=C2N2CCOCC2)cc1 |  | > 25 | > 25 | < 0.78 | < 0.78 | < 0.78 µM
CCOc1ccc2nc(-c3ccccc3)nc(SCC(=O)Nc3ncc(C)s3)c2c1 | > 25 µM (inactive) | > 25 | > 25 | > 25 | > 25 | > 25 µM (inactive)
CCOC(=O)/C(=N\Nc1ccc(Cl)cc1)c1csc(Nc2ccccc2)n1 | 22.5 µM (inactive) | 20.6 | 24.4 | 6.29 | 6.72 | 6.51 µM
COc1ccc(Nc2oc(-c3ccc(Cl)cc3)nc2C#N)cc1 | > 25 µM (inactive) | > 25 | > 25 | 17.9 | > 25 | 
O=C(c1ccoc1)N1CCN(c2cc(-c3ccncc3)nc3cc(-c4cccc(Cl)c4)nn23)CC1 | > 25 µM (inactive) | > 25 | > 25 | > 25 | 23.6 | 
Cc1onc(NC(=O)c2ccc([N+](=O)[O-])o2)c1Br | > 25 µM (inactive) | > 25 | > 25 | > 25 | > 25 | > 25 µM (inactive)
COCCNC(=O)c1cc2c(-c3ccc(Cl)cc3)nn(C)c2s1 | > 25 µM (inactive) | > 25 | > 25 | > 25 | > 25 | > 25 µM (inactive)

SMILES | IC50 cytotoxicity (DAPI nuclear signal decrease) (DAPI; mean of runs) | IC50 cytotoxicity (DAPI nuclear signal decrease) (DAPI; run 1) [µM] | IC50 cytotoxicity (DAPI nuclear signal decrease) (DAPI; run 2) [µM] | IC50 (TAG; run 1) [µM] | IC50 (TAG; run 2) [µM] | IC50 (TAG; mean of runs)
Brc1ccc(C2=Nn3c(nnc3-c3n[nH]c4c3CCC4)SC2)cc1 | > 25 µM (inactive) | > 25 | > 25 | 9.45 | 18.1 | 13.8 µM
Cc1cc(C)nc(NC(=NCCc2c[nH]c3ccccc23)NC(=O)Nc2ccc(Cl)c(Cl)c2)n1 | > 25 µM (inactive) | > 25 | > 25 | 8.52 | 11.8 | 10.2 µM
O=[N+]([O-])c1ccc(Nc2nc(N3CCOCC3)nc(N3CCOCC3)n2)cc1 | > 25 µM (inactive) | > 25 | > 25 | 24.2 | 18.6 | 21.4 µM (inactive)
C[C@@H]1CN([C@@H](C)CO)C(=O)c2cccc(NC(=O)C3CCCCC3)c2O[C@@H]1CN(C)Cc1ccc(Cl)c(Cl)c1 | > 25 µM (inactive) | > 25 | > 25 | 9.78 | 13.3 | 11.5 µM
CCCC[C@H](CN[C@@H](CNC)[C@H](C)CC)NCCC12CCC(CC1)C2 |  | 17.8 | > 25 | > 25 | > 25 | > 25 µM (inactive)
CC1(C)CCCN(Cc2c(O)ccc3c(=O)c(-c4nc5ccccc5s4)c(N)oc23)C1 | > 25 µM (inactive) | > 25 | > 25 | 10 | 10 | 10 µM
COCCOC(=O)c1[nH]c2c(c1C)C(=O)CC(c1ccccc1)C2 (centres undefined) | > 25 µM (inactive) | > 25 | > 25 | > 25 | > 25 | > 25 µM (inactive)
COc1ccc(CC(=O)Nc2ccc(-c3nnc(-c4ccc(C)cc4)o3)cc2)cc1 | > 25 µM (inactive) | > 25 | > 25 | > 25 | > 25 | > 25 µM (inactive)
CC(=O)O[C@H]1C[C@@]2(C)[C@@H](C[C@@H](O)[C@H]3[C@@]4(C)CC[C@@H](O)[C@@H](C)[C@@H]4CC[C@@]32C)/C1=C(\CCC=C(C)C)C(=O)O | > 25 µM (inactive) | > 25 | > 25 | 15 | 22 | 18.5 µM (inactive)
CCOC(=O)Nc1ccc2c(c1)C(=NNC(=S)NC)c1ccccc1-2 |  | > 25 | 9.75 | > 25 | > 25 | > 25 µM (inactive)
CN1CCN(c2ccc([N+](=O)[O-])cc2C(=O)c2ccc(Cl)cc2)CC1 | > 25 µM (inactive) | > 25 | > 25 | > 25 | > 25 | > 25 µM (inactive)
CC1(C(=O)NCc2ccco2)Cc2c(-c3ccc4c(c3)OCO4)ccnc2O1 (centres undefined) | > 25 µM (inactive) | > 25 | > 25 | 17.1 | > 25 | 
CN(C)CCCNC(=O)CC1C[C@H](C(=O)N2CCCCC2)[C@@]2(CCc3ccccc3)c3[nH]c4ccccc4c3CCN2C1=O (some centres undefined) | > 25 µM (inactive) | > 25 | > 25 | 23.2 | 16.8 | 20 µM (inactive)
O=C(NCCCCCCCN1CCCCCCC1)C(C1CCCCC1)C1CCCCC1 | > 25 µM (inactive) | > 25 | > 25 | 15.9 | 19.7 | 17.8 µM (inactive)
CCOc1ccccc1-c1nc(-c2ccc(NC(=O)Cc3ccccc3OC)cc2)no1 | > 25 µM (inactive) | > 25 | > 25 | > 25 | > 25 | > 25 µM (inactive)
CCC[C@@H](CN[C@@H](CNC)[C@H](C)CC)NCC1CCC(C(C)(C)C)CC1 (some centres undefined) |  | > 25 | 24 | > 25 | > 25 | > 25 µM (inactive)
